Results reported in patent US4612322A, “Azole type dioxolane derivatives” (Shionogi & Co., Ltd., priority 1983, dated 1986).
In brackets after ≈: the same amount, converted by molar mass.

Columns and labels:
Trichophyton asteroides = experiment: Antimycotic test against Trichophyton asteroides (in vitro, Sabouraud's dextrose broth); type: cell-based; conditions: read-out: Minimum Inhibitory Concentration (MIC)
From the text: Sabouraud's dextrose broth* was used as culture medium.

Candida albicans KE-2 [1] = experiment: Test on inhibition against formation of the pseudohyphae in Candida albicans; type: cell-based; conditions: KE2; Candida albicans KE-2, 1×10^6 cells/ml, Eagle broth + 20% bovine serum, 37° C., 18 hours; read-out: Inhibitory concentration against pseudohyphae formation
Experimental: To Eagle MEN broth (Nissan 2, Nissui Seiyaku Co., Ltd.) was added 20% bovine serum and inoculated Candida albicans KE-2 yeast cells at rate of 1×10^6 cells/ml (final inoculum size), and each test compound was added thereto in two-fold serial dilution method. After termination of cultivation at 37° C. for 18 hours, each organism of the serial dilution was smeared and fixed on a slide glass and stained by Giemsa's staining, and occurrence of the pseudohyphae was observed under a microscope. Minimum concentration which could inhibit the formation of pseudohyphae was regarded as the inhibitory concentration of the compound against pseudohyphae formation.

Candida albicans KE-2 [2] = experiment: Therapeutic effect against experimental candidasis in mice; type: in vivo, Jcl-ICR female mice; conditions: 15th day from infection; 25 mg/Kg oral, twice per day for 5 days; 5×10^5 Candida albicans KE-2 cells i.v.; eight mice; control 0
Experimental: Candida albicans KE-2 was cultured in a Sabouraud's dextrose agar at 28° C. for 48 hours, and the resulting culture was suspended in the Sabouraud's dextrose broth. The resulting cells (5×10^5) were intravenously administered at the tail of Jcl-ICR female mice (4 weeks age, body weight: 18-20 g). Each test compound suspended in 2% gum-arabic was orally administered at a dose of 25 mg/Kg twice per day for 5 days; on the first day, the test compound is administered twice, i.e., immediately after the infection and 2 hours later; on the second day or later, 24 hours after the administration of the previous day respectively. After the infection, no test compound was administered to a control group. Eight mice were employed in the control group and the test groups to which the test compound was administered The therapuetic effect was evaluated on the survival rate at the 15th day from the day of infection; the result is shown below.

[3] = in vivo, po; cited from earlier work

| Structure (SMILES) | MIC (Trichophyton asteroides) | minimal effective concentration (Candida albicans KE-2 [1]) | Survival rate (Candida albicans KE-2 [2]) | adverse reactions [3] |
| --- | --- | --- | --- | --- |
| CCCCC1OC(=O)OC1(Cn1cncn1)c1ccc(Cl)cc1Cl (stereo not shown) [Compound 4] | 0.2 µg/mL (≈ 0.54 µM) |  |  |  |
| Cc1ccc(C2OC(=O)OC2(Cn2cncn2)c2ccccc2Cl)cc1 (stereo not shown) [Compound 15] | 3.1 µg/mL (≈ 8.38 µM) | 0.63 µg/mL |  |  |
| CC(C)C1OC(=O)OC1(Cn1cncn1)c1ccc(Cl)cc1Cl (stereo not shown) [Compound 2] | 3.1 µg/mL (≈ 8.7 µM) | 0.63 µg/mL | 100% |  |
| O=C1OC(c2ccc(F)cc2)C(Cn2cncn2)(c2ccc(Cl)cc2Cl)O1 (stereo not shown) [Compound 1, 4-(2,4-dichlorophenyl)-5-(4-fluorophenyl)-2-oxo-4-(1H-1,2,4-triazol-1-yl)methyl-1,3-dioxolane] | 0.1 µg/mL (≈ 0.245 µM) | 0.31 µg/mL | 87.5% |  |
| O=C1OC(c2ccc(Cl)cc2)C(Cn2cncn2)(c2ccc(Cl)cc2Cl)O1 (single isomer, unassigned) [Compound 19] | 0.2 µg/mL (≈ 0.471 µM) | 0.04 µg/mL | 86% |  |
| CCCC1OCOC1(Cn1cncn1)c1ccc(Cl)cc1 (stereo not shown) [Compound 33] | 0.2 µg/mL (≈ 0.65 µM) | 0.16 µg/mL |  |  |
| CC(=O)N1CCN(c2ccc(OCC3COC(Cn4ccnc4)(c4ccc(Cl)cc4Cl)O3)cc2)CC1 (stereo not shown) [Ketoconazole] |  |  |  | hepatic dysfunction |
| Fc1ccc(C2OCOC2(Cn2cncn2)c2ccc(Cl)cc2Cl)cc1 (stereo not shown) [Compound 34] | 0.1 µg/mL (≈ 0.254 µM) | 0.31 µg/mL |  |  |
| O=C1OC(c2ccc(Cl)cc2Cl)C(Cn2cncn2)(c2ccc(Cl)cc2)O1 (stereo not shown) [Compound 5] |  | 0.63 µg/mL | 100% |  |
| CC1(C)OC(c2ccc(Cl)cc2Cl)C(Cn2cncn2)(c2ccc(Cl)cc2)O1 (stereo not shown) [Compound 39, 4-(4-chlorophenyl)-5-(2,4-dichlorophenyl)-2,2-dimethyl-4-(1H-1,2,4-triazol-1-yl)methyl-1,3-dioxolane] | 0.8 µg/mL (≈ 1.82 µM) | 5 µg/mL |  |  |
| O=S1OC(c2ccc(Cl)cc2Cl)C(Cn2cncn2)(c2ccc(Cl)cc2)O1 (single isomer, unassigned) [Compound 27B] | 0.1 µg/mL (≈ 0.225 µM) | 0.02 µg/mL | 75% |  |
| O=C1OC(c2ccc(F)cc2)C(Cn2cncn2)(c2ccc(F)cc2)O1 (stereo not shown) [Compound 8] | 3.1 µg/mL (≈ 8.68 µM) |  |  |  |
| O=C1OC(c2ccccc2Cl)C(Cn2cncn2)(c2ccccc2Cl)O1 (stereo not shown) [Compound 7] |  | 0.31 µg/mL |  |  |
| Cc1ccc(C2OC(=O)OC2(Cn2cncn2)c2ccc(C)cc2)cc1 (stereo not shown) [Compound 11] |  | 1.25 µg/mL |  |  |
| O=C1OC(c2ccccc2)C(Cn2cncn2)(c2ccc(Cl)cc2Cl)O1 (stereo not shown) [Compound 3] | 0.1 µg/mL (≈ 0.256 µM) |  |  |  |
| O=C1OC(c2ccccc2)C(Cn2ccnc2)(c2ccc(Cl)cc2Cl)O1 (stereo not shown) [Compound 23] | 0.1 µg/mL (≈ 0.257 µM) | 0.16 µg/mL |  |  |
| CCCC1OC(=O)OC1(Cn1cncn1)c1ccc(Cl)cc1Cl (stereo not shown) [Compound 12] | 1.6 µg/mL (≈ 4.49 µM) |  |  |  |
